In patent US20140213576A1, “NOVEL COMPOUND USEFUL FOR THE TREATMENT OF DEGENERATIVE AND INFLAMMATORY DISEASES” (GALAPAGOS NV, priority 2013, published 2014):
pIC50, pKi: −log10 of the molar value. “And” between values parts separate entries of the source, which are not always exact repeats. Equal entries are not always repeated.

What was measured:
[1] = molecular target: T1, Recombinant human JAK1 (catalytic domain, amino acids 866-1154) (Homo sapiens, UniProt P23458); test: JAK1 Ulight-JAK1 peptide assay; assay type: biochemical
T1 construct: Recombinant human JAK1 (catalytic domain, amino acids 866-1154; catalog number PV4774); purchased Invitrogen PV4774
Procedure: Recombinant human JAK1 (catalytic domain, amino acids 866-1154; catalog number PV4774) was purchased from Invitrogen. 1 ng of JAK1 was incubated with 20 nM Ulight-JAK1(tyr1023) peptide (Perkin Elmer catalog number TRF0121) in kinase reaction buffer (25 mM MOPS pH6.8, 0.01% Brij-35, 5 mM MgCl2, 2 mM DTT, 7 μM ATP) with or without 4 μL containing test compound or vehicle (DMSO, 1% final concentration), in a total volume of 20 μL, in a white 384 Opti plate (Perkin Elmer, catalog number 6007290). After 60 min at room temperature, reactions were stopped by adding 20 μL/well of detection mixture (1× detection buffer (Perkin Elmer, catalog number CR97-100C), 0.5 nM Europium-anti-phosphotyrosine (PT66) (Perkin Elmer, catalog number AD0068), 10 mM EDTA). Readout is performed using the Envision with excitation at 320 nm and measuring emission at 615 nm (Perkin Elmer). Kinase activity was calculated by subtracting relative fluorescence units (RFU) obtained in the presence of a positive control inhibitor (10 μM staurosporine) from RFU obtained in the presence of vehicle. The ability of a test compound to inhibit this activity was determined as:
Percentage inhibition=((RFU determined for sample with test compound present−RFU determined for sample with positive control inhibitor) divided by (RFU determined in the presence of vehicle−RFU determined for sample with positive control inhibitor))*100.
Dose dilution series were prepared for the compounds enabling the testing of dose-response effects in the JAK1 assay and the calculation of the IC50 for the compound. Each compound is routinely tested at concentration of 20 μM followed by a ⅕ serial dilution, 10 points in a final concentration of 1% DMSO. […] The data are expressed as the average IC50 from the assays±standard error of the mean.

[2] = molecular target: T2, JAK2 (Homo sapiens, UniProt O60674); test: JAK2 Ki determination assay (kinase tracer 236 binding); conditions: binding experiment, 25 nM kinase tracer 236; read-out: Ki against JAK2
T2 construct: Recombinant human JAK2 catalytic domain (amino acids 808-1132; catalog number PV4210); purchased Invitrogen PV4210
Procedure: JAK2 (Invitrogen, PV4210) was used at a final concentration of 5 nM. The binding experiment was performed in 50 mM Hepes pH 7.5, 0.01% Brij-35, 10 mM MgCl2, 1 mM EGTA using 25 nM kinase tracer 236 (Invitrogen, PV5592) and 2 nM Eu-anti-GST (Invitrogen, PV5594) with varying compound concentrations. Detection of tracer was performed according to the manufacturer's procedure.

[3] = molecular target: T3, TYK2 (Homo sapiens, UniProt P29597); test: TYK2 Ki determination assay (kinase tracer 236 binding); conditions: binding experiment, 50 nM kinase tracer 236; read-out: Ki against TYK2
T3 construct: purchased Carna Biosciences 09CBS-0983D
Procedure: TYK2 (Carna Biosciences, 09CBS-0983D) was used at a final concentration of 5 nM. The binding experiment was performed in 50 mM Hepes pH 7.5, 0.01% Brij-35, 10 mM MgCl2, 1 mM EGTA using 50 nM kinase tracer 236 (Invitrogen, PV5592) and 2 nM Eu-anti-GST (Invitrogen, PV5594) with varying compound concentrations. Detection of tracer was performed according to the manufacturers’ procedure.

T1 sequence (P23458 866-1154): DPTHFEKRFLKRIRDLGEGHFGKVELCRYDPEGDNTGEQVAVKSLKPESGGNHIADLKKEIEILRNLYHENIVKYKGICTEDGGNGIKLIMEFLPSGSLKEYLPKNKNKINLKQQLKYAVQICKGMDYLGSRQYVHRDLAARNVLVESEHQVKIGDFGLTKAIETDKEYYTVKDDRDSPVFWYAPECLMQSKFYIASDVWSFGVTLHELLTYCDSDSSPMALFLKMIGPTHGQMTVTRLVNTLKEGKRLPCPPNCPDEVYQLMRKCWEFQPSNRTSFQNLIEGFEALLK
T2 sequence (O60674 808-1132): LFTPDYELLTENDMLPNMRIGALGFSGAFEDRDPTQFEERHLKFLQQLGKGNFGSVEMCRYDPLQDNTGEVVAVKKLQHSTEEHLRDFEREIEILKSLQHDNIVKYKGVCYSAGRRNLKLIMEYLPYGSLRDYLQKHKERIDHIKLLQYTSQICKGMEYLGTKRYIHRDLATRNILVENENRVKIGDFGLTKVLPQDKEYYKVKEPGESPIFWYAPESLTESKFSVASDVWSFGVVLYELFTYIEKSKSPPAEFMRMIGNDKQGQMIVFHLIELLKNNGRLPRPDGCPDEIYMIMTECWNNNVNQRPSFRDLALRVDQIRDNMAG
T3 sequence (P29597 whole entry): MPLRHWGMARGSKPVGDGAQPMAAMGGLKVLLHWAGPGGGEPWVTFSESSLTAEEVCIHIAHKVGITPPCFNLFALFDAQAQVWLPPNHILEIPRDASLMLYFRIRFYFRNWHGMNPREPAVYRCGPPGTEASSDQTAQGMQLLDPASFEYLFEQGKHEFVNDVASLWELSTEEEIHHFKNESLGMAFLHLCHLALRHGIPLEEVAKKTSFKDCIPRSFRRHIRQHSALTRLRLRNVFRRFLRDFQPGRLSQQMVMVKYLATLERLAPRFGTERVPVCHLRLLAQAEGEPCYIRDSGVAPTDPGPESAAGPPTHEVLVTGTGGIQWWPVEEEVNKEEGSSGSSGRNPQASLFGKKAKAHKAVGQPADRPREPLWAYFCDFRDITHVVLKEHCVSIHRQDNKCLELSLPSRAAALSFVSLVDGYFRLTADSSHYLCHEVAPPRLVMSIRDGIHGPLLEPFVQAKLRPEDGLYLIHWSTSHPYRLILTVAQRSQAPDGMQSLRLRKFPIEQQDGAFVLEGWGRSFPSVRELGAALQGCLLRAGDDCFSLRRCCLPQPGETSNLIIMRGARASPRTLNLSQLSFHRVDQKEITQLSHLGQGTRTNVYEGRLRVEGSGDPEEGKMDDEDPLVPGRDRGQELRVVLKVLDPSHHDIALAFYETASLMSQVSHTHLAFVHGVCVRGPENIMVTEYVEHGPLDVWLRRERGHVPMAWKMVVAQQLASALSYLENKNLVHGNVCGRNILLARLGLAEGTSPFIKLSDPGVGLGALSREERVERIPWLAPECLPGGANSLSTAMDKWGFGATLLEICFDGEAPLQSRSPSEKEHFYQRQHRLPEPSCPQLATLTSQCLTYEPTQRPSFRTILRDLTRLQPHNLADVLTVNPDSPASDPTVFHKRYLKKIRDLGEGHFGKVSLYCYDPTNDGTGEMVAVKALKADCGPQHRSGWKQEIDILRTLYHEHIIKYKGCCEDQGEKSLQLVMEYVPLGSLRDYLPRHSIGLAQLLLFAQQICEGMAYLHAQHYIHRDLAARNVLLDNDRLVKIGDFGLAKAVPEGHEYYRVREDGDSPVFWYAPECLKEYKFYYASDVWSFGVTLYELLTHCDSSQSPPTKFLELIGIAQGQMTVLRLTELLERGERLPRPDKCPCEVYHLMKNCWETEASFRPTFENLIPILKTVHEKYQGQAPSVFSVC

CCc1cc(C2CN(S(C)(=O)=O)C2)ncc1N(C)c1cc2c(cn1)ncn2C [Compound 1, [4-Ethyl-6-(1-methanesulfonyl-azetidin-3-yl)-pyridin-3-yl]-methyl-(1-methyl-1H-imidazo[4,5-d]pyridin-6-yl)-amine]
selectivity for JAK1 vs the other JAK family members (JAK2, JAK3, and TYK2) [1]: at least 10 fold | pIC50 ([1]; Ulight-JAK1(tyr1023) peptide, 7 μM ATP, individual determinations, read-out: IC50 against JAK1): 8.18 and 8.11 and 7.89 and 8.35 and 7.99 and 8.04 and 8.27 and 8.08 and 8.03 and 8.16 | JAK1 selectivity vs JAK2 ([1]; vs JAK2): > 15 fold | JAK1 selectivity vs JAK3 ([1]; vs JAK3): > 70 fold | JAK1 selectivity vs TYK2 ([1]; vs TYK2): > 80 fold | pKi [2]: 7.20 | pKi [3]: 6.47
